In the supplement of paper PMC10307832:

Tests used:
Experiment in all cases: relative viability (nuclei count vs DMSO), 5 days (fraction); higher = more cells survive
Idelalisib + Linsitinib = compound: CC[C@H](Nc1ncnc2[nH]cnc12)c1nc2cccc(F)c2c(=O)n1-c1ccccc1 [Idelalisib] + C[C@]1(O)C[C@@H](c2nc(-c3ccc4ccc(-c5ccccc5)nc4c3)c3c(N)nccn32)C1 [Linsitinib] (partner 1 µM)
Summary of the method: (§1)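 After 5 days of treatment, lung cancer cells in 1536-well plates were fixed and stained in a single step (final 0.05% Triton X-100, 1% formaldehyde, 1 ug/ml Hoechst) and their nuclei counted on 4× images. Treatment had been applied by pin tool the day after seeding as one drug alone or as a fixed anchor-drug dose with five library-drug doses (not always all listed) in √10 steps. Relative viability is the nuclei count of treated wells divided by that of vehicle wells, and values are medians of duplicate plates.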

Idelalisib + Phenformin = compound: CC[C@H](Nc1ncnc2[nH]cnc12)c1nc2cccc(F)c2c(=O)n1-c1ccccc1 [Idelalisib] + N=C(N)NC(=N)NCCc1ccccc1 [Phenformin] (partner 250 µM)
Summary of the method: as §1

Pemetrexed + Palbociclib = compound: Nc1nc2[nH]cc(CCc3ccc(C(=O)N[C@@H](CCC(=O)O)C(=O)O)cc3)c2c(=O)[nH]1 [Pemetrexed] + CC(=O)c1c(C)c2cnc(Nc3ccc(N4CCNCC4)cn3)nc2n(C2CCCC2)c1=O [Palbociclib] (partner 0.5 µM)
Summary of the method: as §1

Pemetrexed + OSI-027 = compound: Nc1nc2[nH]cc(CCc3ccc(C(=O)N[C@@H](CCC(=O)O)C(=O)O)cc3)c2c(=O)[nH]1 [Pemetrexed] + COc1cccc2cc(-c3nc([C@H]4CC[C@H](C(=O)O)CC4)n4ncnc(N)c34)[nH]c12 [OSI-027] (partner 0.5 µM)
Summary of the method: as §1

| Cell Line | relative viability (Idelalisib + Linsitinib; first compound 0.04 µM) | relative viability (Idelalisib + Linsitinib; first compound 0.1265 µM) | relative viability (Idelalisib + Linsitinib; first compound 0.4 µM) | relative viability (Idelalisib + Linsitinib; first compound 1.265 µM) | relative viability (Idelalisib + Linsitinib; first compound 4 µM) | relative viability (Idelalisib + Phenformin; first compound 0.04 µM) | relative viability (Idelalisib + Phenformin; first compound 0.1265 µM) | relative viability (Idelalisib + Phenformin; first compound 0.4 µM) | relative viability (Idelalisib + Phenformin; first compound 1.265 µM) | relative viability (Idelalisib + Phenformin; first compound 4 µM) | relative viability (Pemetrexed + Palbociclib; first compound 0.002 µM) | relative viability (Pemetrexed + Palbociclib; first compound 0.006325 µM) | relative viability (Pemetrexed + Palbociclib; first compound 0.02 µM) | relative viability (Pemetrexed + Palbociclib; first compound 0.06325 µM) | relative viability (Pemetrexed + Palbociclib; first compound 0.2 µM) | relative viability (Pemetrexed + OSI-027; first compound 0.002 µM) | relative viability (Pemetrexed + OSI-027; first compound 0.006325 µM) | relative viability (Pemetrexed + OSI-027; first compound 0.02 µM) | relative viability (Pemetrexed + OSI-027; first compound 0.06325 µM) | relative viability (Pemetrexed + OSI-027; first compound 0.2 µM) |
| --- | --- | --- | --- | --- | --- | --- | --- | --- | --- | --- | --- | --- | --- | --- | --- | --- | --- | --- | --- | --- |
| NCI-H1395 | 1.15 | 1.22 | 0.92 | 0.82 | 0.77 | 0.476 | 0.421 | 0.423 | 0.445 | 0.439 | 0.61 | 0.599 | 0.675 | 0.625 | 0.599 | 0.6 | 0.641 | 0.727 | 0.675 | 0.694 |
| NCI-H23 | 0.693 | 0.592 | 0.436 | 0.499 | 0.474 | 0.713 | 0.845 | 0.792 |  | 0.776 | 0.451 | 0.439 | 0.448 | 0.503 | 0.473 | 0.516 | 0.532 | 0.623 | 0.684 | 0.663 |
| LOU-NH91 | 0.942 | 0.88 | 0.904 | 0.683 | 0.864 | 0.712 | 0.725 | 0.573 | 0.492 | 0.643 | 0.478 | 0.555 | 0.543 | 0.534 | 0.52 | 0.68 | 0.727 | 0.789 | 0.667 | 0.531 |
| NCI-H2009 | 1.22 | 1.28 | 1.11 | 1.16 | 0.887 | 0.496 | 0.483 | 0.474 | 0.536 | 0.491 | 0.263 | 0.205 | 0.194 | 0.22 | 0.203 | 0.573 | 0.607 | 0.749 | 0.66 | 0.683 |
| NCI-H358 | 0.805 | 0.794 | 0.638 | 0.64 | 0.637 | 0.386 | 0.327 | 0.225 | 0.338 | 0.313 | 0.149 | 0.111 | 0.14 | 0.134 | 0.137 | 0.729 | 0.751 | 0.638 | 0.191 | 0.106 |
| NCI-H2126 | 0.71 | 0.715 | 0.685 | 0.698 | 0.625 | 0.575 | 0.57 | 0.441 | 0.528 | 0.527 | 0.363 | 0.327 | 0.409 | 0.339 | 0.359 | 0.601 | 0.805 | 0.808 | 0.796 | 0.691 |
| NCI-H1437 | 1.05 | 1.09 | 0.974 | 1.02 | 1.05 | 0.309 | 0.306 | 0.297 | 0.361 | 0.247 | 0.214 | 0.307 | 0.303 | 0.307 | 0.329 |  | 0.828 | 0.803 | 0.432 | 0.346 |
| SK-LU-1 | 1.17 | 1.15 | 0.916 | 1.02 | 0.973 | 0.601 | 0.57 | 0.433 | 0.55 | 0.468 | 0.54 | 0.379 | 0.391 | 0.413 | 0.375 | 0.312 | 0.319 | 0.398 | 0.352 | 0.34 |
| NCI-H838 | 0.926 | 1.01 | 0.891 | 1.01 | 0.8 | 0.61 | 0.668 | 0.405 | 0.607 | 0.405 | 0.219 | 0.223 | 0.28 | 0.252 | 0.173 | 0.454 | 0.292 | 0.379 | 0.244 | 0.197 |
| NCI-H1755 | 1.01 | 0.959 | 0.947 | 0.907 | 0.786 | 0.633 | 0.601 | 0.558 | 0.675 | 0.531 | 0.488 | 0.423 | 0.478 | 0.448 | 0.412 | 0.685 | 0.797 | 0.782 | 0.691 | 0.667 |
| NCI-H2228 | 0.66 | 0.68 | 0.586 | 0.768 | 0.511 | 0.348 | 0.371 | 0.162 | 0.221 | 0.235 | 0.579 | 0.755 | 0.746 | 0.341 | 0.268 | 0.506 |  | 0.566 | 0.565 | 0.218 |
| NCI-H1915 | 1.19 | 1.15 | 1.04 | 1.17 | 1.07 | 0.387 | 0.36 | 0.364 | 0.381 | 0.372 | 0.487 | 0.512 | 0.568 | 0.521 | 0.522 | 0.58 | 0.631 | 0.661 | 0.609 | 0.573 |
| NCI-H2347 | 0.931 | 0.884 | 0.857 | 1.14 | 0.514 | 0.395 | 0.386 | 0.372 | 0.284 | 0.313 | 0.448 | 0.413 | 0.505 | 0.4 | 0.388 | 0.296 | 0.292 | 0.49 | 0.406 | 0.339 |
| HARA | 1.21 | 0.911 | 0.869 | 0.887 | 0.936 | 0.525 | 0.52 | 0.432 | 0.45 | 0.416 | 0.241 | 0.277 | 0.228 | 0.231 | 0.234 | 0.407 | 0.533 | 0.53 | 0.487 | 0.186 |
| NCI-H2085 | 0.912 | 1.03 | 0.8 | 0.579 | 0.437 | 0.788 | 0.833 | 0.558 | 0.735 | 0.471 | 0.457 | 0.458 | 0.495 | 0.471 | 0.464 | 0.653 | 0.73 | 0.769 | 0.85 | 0.848 |
| NCI-H650 | 0.934 | 0.981 | 0.789 | 0.798 | 0.775 | 0.519 | 0.429 | 0.446 | 0.487 | 0.457 | 0.344 | 0.298 |  | 0.348 | 0.313 | 0.536 | 0.562 | 0.551 | 0.507 | 0.532 |
